Experiments:
shock = settings: in vivo; cited from earlier work
[1] = tested on: hypovolemic shock (severe hypotension induced by bleeding) in rats; assay: Hypovolemic shock by bleeding in anesthetized rats: mean arterial pressure and survival after i.v. bolus; type: in vivo, female Wistar rats; settings: for Mean arterial pressure, 15-30 min. after treatment / Mean arterial pressure, after bleeding / Mean arterial pressure, before bleeding: mean ± S.E.; for Mean arterial pressure, after bleeding: before treatment; for Mean arterial pressure, before bleeding: baseline before bleeding
Procedure: Intact and adrenalectomized female Wistar rats (Nossan, Correzzano, Milano, Italy) weighing 250 to 300 g, were used. Following anesthetization and heparinization a common carotid artery and an iliac vein were cannulated in rats. Arterial blood pressure was recorded by means of a pressure transducer (Statham P23 Db) connected to a polygraph (Battaglia-Rangoni, Bologna, Italy). […] Hypovolemic shock was produced by intermittently withdrawing blood from the venous catheter until mean arterial pressure fell to 16-30 mm Hg. […] Following bleeding and mean blood pressure stabilization in the range of 16-30 mm Hg, animals were given intravenous bolus of either ACTH fragments. Control animals were intravenously injected with the same volume of saline (0.1 ml/100 g of body weight).

[2] = Toxicity and side-effects of ACTH fragments (general statement)
[3] = group later given 160 μg/kg i.v.
[4] = group later given 40 μg/kg i.v.
[5] = group later given 80 μg/kg i.v.

Compound	No. of deaths 120 min. after treatment ([1]; 160 μg/kg i.v. after bleeding)	Mean arterial pressure, 15-30 min. after treatment ([1]; 160 μg/kg i.v. after bleeding) [mm Hg]	Mean arterial pressure, after bleeding [1, 3] [mm Hg]	Mean arterial pressure, before bleeding [1, 3] [mm Hg]	further results
C=CCN1CC[C@]23c4c5ccc(O)c4O[C@H]2C(=O)CC[C@@]3(O)[C@H]1C5 [naloxone]	–	–	–	–	Dosage therapeutically active in shock (shock): about 1 mg/kg
ACTH (1-13) (SYSMEHFRWGKPV; Corticotropin; UniProt P01189 138-150, looked up, fragment) [ACTH-(1-13)]	0	34.50 ± 1.32	15.75 ± 1.31	66.25 ± 9.14	–
ACTH (1-16) (SYSMEHFRWGKPVGKK; Corticotropin; UniProt P01189 138-153, looked up, fragment) [ACTH-(1-16)]	0	54.50 ± 2.02	15.50 ± 2.53	78.25 ± 12.46	–
ACTH (1-17) [ACTH-(1-17)]	0	41.50 ± 3.75	15.75 ± 2.29	57.50 ± 7.17	–
ACTH (1-18) (SYSMEHFRWGKPVGKKRR; Corticotropin; UniProt P01189 138-155, looked up, fragment) [ACTH-(1-18)]	0	38.50 ± 1.85	15.00 ± 2.12	53.00 ± 4.88	–
ACTH (1-24) [ACTH-(1-24)]	0	75.80 ± 8.45	23.15 ± 2.90	82.40 ± 10.75	Toxicity / side-effects [2]: substantially non-toxic; No. of deaths 120 min. after treatment ([1]; 40 μg/kg i.v. after bleeding): 0; Mean arterial pressure, 15-30 min. after treatment ([1]; 40 μg/kg i.v. after bleeding): 39.40 ± 6.32 mm Hg; No. of deaths 120 min. after treatment ([1]; 80 μg/kg i.v. after bleeding): 0; Mean arterial pressure, 15-30 min. after treatment ([1]; 80 μg/kg i.v. after bleeding): 59.48 ± 8.10 mm Hg; Mean arterial pressure, after bleeding [1, 4]: 17.40 ± 2.68 mm Hg; Mean arterial pressure, before bleeding [1, 4]: 82.33 ± 11.73 mm Hg; Mean arterial pressure, after bleeding [1, 5]: 19.23 ± 3.65 mm Hg; Mean arterial pressure, before bleeding [1, 5]: 80.15 ± 9.43 mm Hg
ACTH (1-39) (SYSMEHFRWGKPVGKKRRPVKVYPNGAEDESAEAFPLEF; Corticotropin; UniProt P01189 138-176, looked up) [ACTH-(1-39), full-length ACTH (1-39)]	0	35.75 ± 5.65	14.75 ± 2.32	88.25 ± 2.17	–
ACTH (4-10) (MEHFRWG; Corticotropin; UniProt P01189 141-147, looked up, fragment) [ACTH-(4-10)]	0	47.25 ± 6.18	13.75 ± 2.53	63.25 ±6.76	–
ACTH(25-39) (NGAEDESAEAFPLEF; Corticotropin; UniProt P01189 162-176, looked up, fragment)	1	25.50 ± 4.40	11.50 ± 1.34	78.17 ± 7.25	–

— US4794104A, “Pharmaceutical compositions containing ACTH fragments for the therapy of shock conditions and of respiratory and cardiocirculatory insufficiencies” (priority 1986, dated 1988)
